Assay results taken from US4616020A, “Medicaments, vicinal dihydroxyalkylxanthines contained therein, processes for the preparation of these xanthine compounds and intermediate products suitable for these” (Hoechst Aktiengesellschaft, priority 1981, dated 1986).
Where two headings read alike, the source gives them in different places.

Assays:
[1] = tested on: acetylcholine-induced bronchospasm; experiment: Bronchospasmolytic activity (Konzett-Rossler): inhibition of acetylcholine-induced bronchospasm in guinea-pigs; format: in vivo; conditions: Cavia porcellus, guinea-pig, urethane anaesthesia, read-out: Bronchospasmolytic effect (ED50) compared to acetylcholine
Protocol: (§1) The test substances were administered in aqueous solution either intravenously (i.v.) or intraduodenally (i.d.). The ED50 values, which represent that dose in mg/kg at which the experimentally produced spasm is decreased by one half compared to that in untreated animals, were determined graphically from the dose-activity curves.

central nervous system = tested on: central nervous system; parameters: species or system mice; conditions: mouse, in vivo, po
Protocol: In contrast, the compounds of the formula I according to the invention have no component stimulating the central nervous system, but, on the contrary, exert a slight depressant effect on the central nervous system which is assessed to be particularly advantageous from the therapeutic point of view. Thus, the spontaneous motility of mice, for example, is decreased by 53% for a period of 11 hours after oral administration of 50 mg/kg of the compound from Example 1.

[2] = tested on: bronchospasm induced with bradykinin; experiment: Inhibitory effect on bronchospasm induced in guinea-pigs with bradykinin; format: in vivo; conditions: for ED50: Cavia porcellus, read-out: ED50, bronchospasm induced with bradykinin
Excerpt: Since it is regarded as proven that, apart from the biogenic amines, acetylcholine, histamine and serotonine, listed in Table 4, bradykinin also plays an important part as a mediator substance in the provocation of asthma attacks, the inhibitory effect on the bronchospasm induced in guinea-pigs with bradykinin was investigated.

[3] = tested on: bronchospastic reactions induced with aerosols of acetylcholine, histamine and ascaris extract; experiment: Pulmonary function test on the anaesthetized dog: inhibition of bronchospastic reactions induced with aerosols of acetylcholine, histamine and ascaris extract; format: in vivo
Ratio of LD50 to ED50 = format: in vivo, mouse (LD50); guinea-pigs (ED50)
Protocol: as §1
(§2) Determination of the LD50 values was by the standard method of the mortality occurring within 7 days among NMRI mice after a single intravenous (i.v.), intraperitoneal (i.p.) or oral (p.o.) administration.

[4] = tested on: serotonine-induced bronchospasm; experiment: Bronchospasmolytic activity (Konzett-Rossler): inhibition of serotonine-induced bronchospasm in guinea-pigs; format: in vivo; conditions: Cavia porcellus, guinea-pig, urethane anaesthesia, read-out: Bronchospasmolytic effect (ED50) compared to serotonine
Protocol: as §1

[5] = tested on: histamine-induced bronchospasm; experiment: Bronchospasmolytic activity (Konzett-Rossler): inhibition of histamine-induced bronchospasm in guinea-pigs; format: in vivo; conditions: Cavia porcellus, guinea-pig, urethane anaesthesia, read-out: Bronchospasmolytic effect (ED50) compared to histamine
Protocol: as §1

[6] = Acute toxicity, mortality within 7 days among NMRI mice after single administration; conditions: in vivo, mouse
Excerpt: as §2
*determined by the method of Litchfield and Wilcoxon (J. Pharmacol. exp.

[7] = background statement; cited from earlier work
[8] = background statement; cited from earlier work; remark: listed apart in the source
[9] = LD50 i.v. mouse, ED50 i.v. guinea-pig
[10] = LD50 i.p. mouse, ED50 i.v. guinea-pig

| SMILES | ED50 ([1]; iv) | ratio of LD50 to ED50 (head is drawing 107) (Ratio of LD50 to ED50; [9]) | ED50 ([4]; iv) | ED50 ([5]; iv) | LD50 at 168 h ([6]; iv) | other results |
| --- | --- | --- | --- | --- | --- | --- |
| CCCn1c(=O)c2c(ncn2CCCCC(O)CO)n(CC)c1=O (stereo not shown) [Example 1, 3-Ethyl-7-(5,6-dihydroxyhexyl)-1-propylxanthine] | 2 mg/kg | 305 | 0.3 mg/kg | 0.2 mg/kg | 254 mg/kg | ED50 ([1]; i.d. (intraduodenal)): 6.3 mg/kg; decrease in spontaneous motility (central nervous system; 50 mg/kg): 53%; ED50 ([2]; iv, guinea-pigs): 1 to 3 mg/kg; ED50 ([2]; i.d., guinea-pigs): 4 to 6.3 mg/kg; times more effective than theophylline-ethylenediamine, bradykinin bronchospasm ([2]; i.d.): about 6 times; times more effective than theophylline-ethylenediamine, bradykinin bronchospasm ([2]; i.v.): about 3 times; inhibitory effect on bronchospastic reactions ([3]; 12 mg/kg i.v.): significant inhibitory effect; ratio of LD50 to ED50 (head is drawing 107) (Ratio of LD50 to ED50; LD50 p.o. mouse, ED50 i.d. guinea-pig): 94; ED50 ([4]; i.d. (intraduodenal)): 15 mg/kg; ED50 ([5]; i.d. (intraduodenal)): 25 mg/kg; LD50 at 168 h ([6]; po): 1450 mg/kg |
| CCn1c(=O)c2c(ncn2CCCCC(O)CO)n(CC)c1=O (stereo not shown) [Example 2, 1,3-Diethyl-7-(5,6-dihydroxyhexyl)xanthine] | 2 mg/kg | 163 | 2 mg/kg | 2 mg/kg | 325 mg/kg |  |
| CCCCn1c(=O)n(CCCC(O)CO)c(=O)c2c1ncn2C (stereo not shown) [Example 7, 3-Butyl-1-(4,5-dihydroxypentyl)-7-methylxanthine] | 3 mg/kg | > 42 |  | 6.5 mg/kg | > 200 mg/kg |  |
| CCn1c(=O)c2c(ncn2CC)n(CCCCC(O)CO)c1=O (stereo not shown) [Example 8, 1,7-Diethyl-3-(5,6-dihydroxyhexyl)xanthine] | 6.5 mg/kg | > 60 | 2 mg/kg | 6.5 mg/kg | > 300 mg/kg |  |
| CCCn1c(=O)n(CCCCC(O)CO)c(=O)c2c1ncn2C (stereo not shown) [Example 10] | 3 mg/kg | 83 | 3 mg/kg | 3 mg/kg | 250 mg/kg |  |
| CCCn1c(=O)c2c(ncn2CCC(O)CO)n(CCC)c1=O (stereo not shown) [Example 12] | 6.5 mg/kg |  | 10 mg/kg | 10 mg/kg |  | ratio of LD50 to ED50 (head is drawing 107) (Ratio of LD50 to ED50; [10]): > 68; LD50 at 168 h ([6]; ip): > 600 mg/kg |
| CCCn1c(=O)c2c(ncn2CCCC(O)CO)n(CCC)c1=O (stereo not shown) [Example 13] | 6.5 mg/kg |  |  | 6.5 mg/kg |  | ratio of LD50 to ED50 (head is drawing 107) (Ratio of LD50 to ED50; [10]): 138; LD50 at 168 h ([6]; ip): 900 mg/kg |
| CCn1c(=O)c2c(ncn2CCCCC(O)CO)n(C)c1=O (stereo not shown) [Example 17] | 2 mg/kg | > 60 | 6.5 mg/kg | 6.5 mg/kg | > 300 mg/kg |  |
| CCCn1c(=O)c2c(ncn2CCCCC(O)CO)n(C)c1=O (stereo not shown) [Example 18] | 6.5 mg/kg | 46 | 6.5 mg/kg | 6.5 mg/kg | 300 mg/kg |  |
| CCCCn1c(=O)c2c(ncn2CCCCC(O)CO)n(C)c1=O (stereo not shown) [Example 19] | 2 mg/kg | 63 | 3 mg/kg | 2 mg/kg | 147 mg/kg |  |
| CCCCCn1c(=O)c2c(ncn2CCCCC(O)CO)n(C)c1=O (stereo not shown) [Example 21] | 3 mg/kg | 52 | 3 mg/kg | 3 mg/kg | 155 mg/kg |  |
| CC(C)CCn1c(=O)c2c(ncn2CCCCC(O)CO)n(C)c1=O (stereo not shown) [Example 22] | 1 mg/kg | 48 | 6.5 mg/kg | 3 mg/kg | 167 mg/kg |  |
| CCn1c(=O)n(C)c(=O)c2c1ncn2CCCCC(O)CO (stereo not shown) [Example 24] | 6.5 mg/kg | 49 | 10 mg/kg | 2 mg/kg | 300 mg/kg |  |
| CCn1c(=O)n(C(C)C)c(=O)c2c1ncn2CCCCC(O)CO (stereo not shown) [Example 25] | 2 mg/kg | > 114 | 2 mg/kg | 6.5 mg/kg | > 400 mg/kg |  |
| CCCCn1c(=O)c2c(ncn2CCCCC(O)CO)n(CC)c1=O (stereo not shown) [Example 26] | 2 mg/kg | 146 | 0.6 mg/kg | 1.6 mg/kg | 205 mg/kg |  |
| CCCCCn1c(=O)c2c(ncn2CCCCC(O)CO)n(CC)c1=O (stereo not shown) [Example 28] | 2 mg/kg | 75 | 3 mg/kg | 3 mg/kg | 200 mg/kg |  |
| CCCn1c(=O)n(C)c(=O)c2c1ncn2CCCCC(O)CO (stereo not shown) [Example 30] | 6.5 mg/kg | 59 |  | 2 mg/kg | 250 mg/kg |  |
| CCCn1c(=O)c2c(ncn2CCCC(O)C(C)O)n(CC)c1=O (stereo not shown) [Example 33] | 6 mg/kg | > 55 | 2 mg/kg | 3 mg/kg | > 200 mg/kg |  |
| CCCn1c(=O)c2c(ncn2CCCCCC(O)CO)n(CC)c1=O (stereo not shown) [Example 51] | 2 mg/kg | 150 |  | 2 mg/kg | 300 mg/kg |  |
| Cn1c(=O)c2[nH]cnc2n(C)c1=O.NCCN [Theophylline-ethylenediamine, theophylline-ethylenediamine, reference compound] | 8.3 mg/kg |  | 7.3 mg/kg | 5.6 mg/kg | 195 mg/kg | increase in spontaneous motility (central nervous system; 30 mg/kg): 186%; ED50 ([2]; iv): 3 to 10 mg/kg; ED50 [2]: 25 to 40 mg/kg; therapeutic range [7]: not associated with a significant increase in the therapeutic range; LD50 at 168 h ([6]; po): 550 mg/kg |
| NCCN [ethylenediamine] |  |  |  |  |  | side-effects [7]: deleterious effect on the cardiovascular system |
| Cn1c(=O)c2[nH]cnc2n(C)c1=O [theophylline, 1,3-dimethylxanthine] |  |  |  |  |  | water solubility [8]: lack of water solubility; effect on bronchospastic reactions ([3]; doses up to 20 mg/kg i.v.): no effect; therapeutic range [7]: very narrow therapeutic range |
